# Results as given in ChEMBL document CHEMBL2396606, “Discovery of novel HCV inhibitors: synthesis and biological activity of 6-(indol-2-yl)pyridine-3-sulfonamides targeting hepatitis C virus NS4B” (Bioorg Med Chem Lett, 2013).
# Assays:
# Type in all cases: ADME, organism-based
# [1] = Tmax in Sprague-Dawley rat at 10 mg/kg, po; design: dose 10 mg/kg, route oral; conditions: in vivo
# [2] = AUC (0 to 6 hrs) in Sprague-Dawley rat at 10 mg/kg, po; design: time < 6 hr, dose 10 mg/kg, route oral; conditions: plasma
# [3] = Cmax in Sprague-Dawley rat at 10 mg/kg, po; design: dose 10 mg/kg, route oral; conditions: in vivo
# [4] = AUC (0 to infinity) in Sprague-Dawley rat at 10 mg/kg, po; design: time infinity, dose 10 mg/kg, route oral; conditions: plasma
# [5] = Oral bioavailability in Sprague-Dawley rat at 10 mg/kg; conditions: in vivo
# [6] = Volume of distribution at steady state in Sprague-Dawley rat at 10 mg/kg, po and 5 mg/kg, iv; conditions: in vivo, read-out: Vdss
# [7] = AUC (0 to infinity) in Sprague-Dawley rat at 5 mg/kg, iv; design: time infinity, dose 5 mg/kg, route intravenous; conditions: plasma
Tmax [1],AUC(0-t) at 6 h [2],Cmax [3],AUC(0-inf) [4],bioavailability [5],Vd [6],AUC(0-inf) [7],SMILES
2 h,0.579 µM·h,53 ng/mL,,,,,CC(C)NS(=O)(=O)c1ccc(-c2c(C#N)c3ccc(OC(F)F)cc3n2C2CCC2)nc1
2 h,0.964 µM·h,87 ng/mL,,,,,CC(C)NS(=O)(=O)c1ccc(-c2c(C#N)c3ccc(C4CC4)cc3n2C2CCC2)nc1
3 h,3.42 µM·h,348 ng/mL,16 µM·h,62%,4.7 L/kg,13 µM·h,N#Cc1c(-c2ccc(S(=O)(=O)NC(CF)CF)cn2)n(C2CCC2)c2cc(OC(F)F)ccc12
2 h,6.2 µM·h,759 ng/mL,,,,,N#Cc1c(-c2ccc(S(=O)(=O)NC(CF)CF)cn2)n(C2CCC2)c2cc(C3CC3)ccc12
